Assay results published in ChEMBL document CHEMBL5380830, “Development and Therapeutic Implications of Tyrosine Kinase 2 Inhibitors” (J Med Chem, 2023).

Key:
[1] = Inhibition of IFNalpha induced STAT phosphorylation in human whole blood by fluorescence based analysis; format: tissue-based
[2] = target: T1, Non-receptor tyrosine-protein kinase TYK2 (Homo sapiens, UniProt P29597); assay: Binding affinity to human wild-type partial length TYK2 JH2 (G556 to D888 residues) expressed in mammalian expression system by KINOMEscan assay
T1 sequence (P29597 whole entry, the tested form may be a part): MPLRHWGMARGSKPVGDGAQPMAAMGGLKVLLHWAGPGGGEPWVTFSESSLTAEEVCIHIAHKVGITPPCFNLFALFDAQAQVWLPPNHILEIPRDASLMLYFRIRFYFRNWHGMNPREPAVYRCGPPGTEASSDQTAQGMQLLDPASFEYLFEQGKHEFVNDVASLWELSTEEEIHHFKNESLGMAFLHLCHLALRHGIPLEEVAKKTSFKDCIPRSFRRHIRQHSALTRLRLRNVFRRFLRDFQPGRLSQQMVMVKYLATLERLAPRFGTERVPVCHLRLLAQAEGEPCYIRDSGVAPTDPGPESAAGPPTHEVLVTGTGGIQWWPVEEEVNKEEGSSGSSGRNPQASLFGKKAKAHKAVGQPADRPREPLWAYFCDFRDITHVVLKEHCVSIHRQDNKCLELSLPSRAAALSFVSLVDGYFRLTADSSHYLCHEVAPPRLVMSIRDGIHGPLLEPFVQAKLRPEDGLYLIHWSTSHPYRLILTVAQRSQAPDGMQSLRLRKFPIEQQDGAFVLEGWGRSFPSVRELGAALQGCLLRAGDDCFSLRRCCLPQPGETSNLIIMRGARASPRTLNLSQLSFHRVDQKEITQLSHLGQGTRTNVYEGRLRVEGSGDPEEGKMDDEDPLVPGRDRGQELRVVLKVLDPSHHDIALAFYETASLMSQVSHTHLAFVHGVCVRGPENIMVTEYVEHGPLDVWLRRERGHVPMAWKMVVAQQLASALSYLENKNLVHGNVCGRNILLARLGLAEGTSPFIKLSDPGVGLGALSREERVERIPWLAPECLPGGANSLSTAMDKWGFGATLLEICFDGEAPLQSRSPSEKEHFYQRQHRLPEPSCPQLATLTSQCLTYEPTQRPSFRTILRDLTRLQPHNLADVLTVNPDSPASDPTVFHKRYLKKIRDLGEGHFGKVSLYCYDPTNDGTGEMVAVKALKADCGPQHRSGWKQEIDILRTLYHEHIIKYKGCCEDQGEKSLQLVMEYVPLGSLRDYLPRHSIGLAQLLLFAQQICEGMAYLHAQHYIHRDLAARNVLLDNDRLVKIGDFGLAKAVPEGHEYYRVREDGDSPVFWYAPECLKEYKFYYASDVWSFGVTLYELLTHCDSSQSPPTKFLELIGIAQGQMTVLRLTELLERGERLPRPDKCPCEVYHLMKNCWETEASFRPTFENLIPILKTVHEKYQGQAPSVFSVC

[3] = target: T1, Non-receptor tyrosine-protein kinase TYK2; assay: Inhibition of TYK2 JH2 in human KIT225 cells assessed as reduction of IFNalpha induced STAT1 phosphorylation by AlphaLISA assay; format: cell-based
[4] = Inhibition of IFNalpha induced STAT phosphorylation in HEK293 cells by Western blotting analysis; format: cell-based; settings: Homo sapiens
[5] = Inhibition of IL-23 induced STAT phosphorylation in HEK293 cells by Western blotting analysis; format: cell-based; settings: Homo sapiens
[6] = target: T2, Tyrosine-protein kinase JAK3 (Homo sapiens, UniProt P52333); assay: Inhibition of human recombinant JAK3 preincubated for 15 mins followed by substrate addition measured after 60 mins by HTRF assay
T2 sequence (P52333 whole entry): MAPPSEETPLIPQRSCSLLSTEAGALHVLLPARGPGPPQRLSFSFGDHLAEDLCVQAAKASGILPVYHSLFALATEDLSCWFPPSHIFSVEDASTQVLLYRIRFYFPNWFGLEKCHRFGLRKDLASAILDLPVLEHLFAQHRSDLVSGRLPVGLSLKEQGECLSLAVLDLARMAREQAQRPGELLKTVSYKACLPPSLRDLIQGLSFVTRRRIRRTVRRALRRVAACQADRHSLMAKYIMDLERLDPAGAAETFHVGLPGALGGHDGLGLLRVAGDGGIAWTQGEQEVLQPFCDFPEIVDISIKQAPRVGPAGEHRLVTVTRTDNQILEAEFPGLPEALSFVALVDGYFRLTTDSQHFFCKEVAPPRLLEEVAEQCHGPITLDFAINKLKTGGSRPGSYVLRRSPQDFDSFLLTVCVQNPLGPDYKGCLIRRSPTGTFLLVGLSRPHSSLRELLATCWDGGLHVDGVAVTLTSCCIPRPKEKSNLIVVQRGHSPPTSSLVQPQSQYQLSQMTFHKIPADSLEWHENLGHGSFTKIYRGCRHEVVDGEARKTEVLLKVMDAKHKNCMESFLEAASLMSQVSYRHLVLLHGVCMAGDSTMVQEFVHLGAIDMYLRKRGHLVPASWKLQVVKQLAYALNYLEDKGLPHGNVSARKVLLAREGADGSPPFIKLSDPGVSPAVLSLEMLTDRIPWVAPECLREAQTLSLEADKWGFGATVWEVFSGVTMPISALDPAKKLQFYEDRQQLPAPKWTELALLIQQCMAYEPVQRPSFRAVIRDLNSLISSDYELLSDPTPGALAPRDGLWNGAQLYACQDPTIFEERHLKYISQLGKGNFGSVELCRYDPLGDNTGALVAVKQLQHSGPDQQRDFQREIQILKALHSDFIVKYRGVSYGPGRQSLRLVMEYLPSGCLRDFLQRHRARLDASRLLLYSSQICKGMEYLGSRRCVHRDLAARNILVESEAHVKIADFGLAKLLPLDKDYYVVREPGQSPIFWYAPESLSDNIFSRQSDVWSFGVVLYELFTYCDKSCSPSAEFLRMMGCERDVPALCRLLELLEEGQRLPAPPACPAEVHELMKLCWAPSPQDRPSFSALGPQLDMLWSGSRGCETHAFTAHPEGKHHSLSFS

[7] = target: T3, Tyrosine-protein kinase JAK1 (Homo sapiens, UniProt P23458); assay: Inhibition of human recombinant JAK1 preincubated for 15 mins followed by substrate addition measured after 60 mins by HTRF assay
T3 sequence (P23458 whole entry): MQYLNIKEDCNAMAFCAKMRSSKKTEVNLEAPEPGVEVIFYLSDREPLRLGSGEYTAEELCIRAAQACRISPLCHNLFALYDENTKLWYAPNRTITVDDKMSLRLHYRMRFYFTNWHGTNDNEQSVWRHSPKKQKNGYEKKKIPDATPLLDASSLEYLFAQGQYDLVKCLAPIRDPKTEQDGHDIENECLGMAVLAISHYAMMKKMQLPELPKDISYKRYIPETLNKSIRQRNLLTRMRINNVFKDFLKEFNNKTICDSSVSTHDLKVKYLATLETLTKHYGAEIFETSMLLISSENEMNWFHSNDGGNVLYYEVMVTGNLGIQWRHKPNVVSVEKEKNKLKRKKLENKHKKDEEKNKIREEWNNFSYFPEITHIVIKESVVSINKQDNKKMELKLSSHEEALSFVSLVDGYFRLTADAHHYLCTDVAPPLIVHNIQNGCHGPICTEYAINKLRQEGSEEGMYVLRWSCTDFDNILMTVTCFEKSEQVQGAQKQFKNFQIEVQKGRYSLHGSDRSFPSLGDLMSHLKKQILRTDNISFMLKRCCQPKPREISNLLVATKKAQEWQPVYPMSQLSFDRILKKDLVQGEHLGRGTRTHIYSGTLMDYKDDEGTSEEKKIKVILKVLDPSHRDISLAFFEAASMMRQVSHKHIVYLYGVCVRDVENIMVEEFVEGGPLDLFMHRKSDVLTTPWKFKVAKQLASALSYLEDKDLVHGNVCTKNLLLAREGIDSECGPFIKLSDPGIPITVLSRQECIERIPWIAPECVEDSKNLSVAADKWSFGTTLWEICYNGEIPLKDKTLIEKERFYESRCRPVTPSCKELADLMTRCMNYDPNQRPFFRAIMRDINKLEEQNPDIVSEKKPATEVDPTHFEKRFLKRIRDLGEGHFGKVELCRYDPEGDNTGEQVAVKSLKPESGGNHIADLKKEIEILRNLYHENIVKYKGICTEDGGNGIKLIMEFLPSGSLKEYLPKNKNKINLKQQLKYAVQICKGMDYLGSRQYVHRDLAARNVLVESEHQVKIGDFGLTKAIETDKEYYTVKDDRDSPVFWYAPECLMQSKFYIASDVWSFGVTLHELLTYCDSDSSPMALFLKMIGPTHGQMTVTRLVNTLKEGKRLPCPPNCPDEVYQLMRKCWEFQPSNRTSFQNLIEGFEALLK

[8] = target: T4, Tyrosine-protein kinase JAK2 (Homo sapiens, UniProt O60674); assay: Inhibition of human recombinant JAK2 preincubated for 15 mins followed by substrate addition measured after 60 mins by HTRF assay
T4 sequence (O60674 whole entry): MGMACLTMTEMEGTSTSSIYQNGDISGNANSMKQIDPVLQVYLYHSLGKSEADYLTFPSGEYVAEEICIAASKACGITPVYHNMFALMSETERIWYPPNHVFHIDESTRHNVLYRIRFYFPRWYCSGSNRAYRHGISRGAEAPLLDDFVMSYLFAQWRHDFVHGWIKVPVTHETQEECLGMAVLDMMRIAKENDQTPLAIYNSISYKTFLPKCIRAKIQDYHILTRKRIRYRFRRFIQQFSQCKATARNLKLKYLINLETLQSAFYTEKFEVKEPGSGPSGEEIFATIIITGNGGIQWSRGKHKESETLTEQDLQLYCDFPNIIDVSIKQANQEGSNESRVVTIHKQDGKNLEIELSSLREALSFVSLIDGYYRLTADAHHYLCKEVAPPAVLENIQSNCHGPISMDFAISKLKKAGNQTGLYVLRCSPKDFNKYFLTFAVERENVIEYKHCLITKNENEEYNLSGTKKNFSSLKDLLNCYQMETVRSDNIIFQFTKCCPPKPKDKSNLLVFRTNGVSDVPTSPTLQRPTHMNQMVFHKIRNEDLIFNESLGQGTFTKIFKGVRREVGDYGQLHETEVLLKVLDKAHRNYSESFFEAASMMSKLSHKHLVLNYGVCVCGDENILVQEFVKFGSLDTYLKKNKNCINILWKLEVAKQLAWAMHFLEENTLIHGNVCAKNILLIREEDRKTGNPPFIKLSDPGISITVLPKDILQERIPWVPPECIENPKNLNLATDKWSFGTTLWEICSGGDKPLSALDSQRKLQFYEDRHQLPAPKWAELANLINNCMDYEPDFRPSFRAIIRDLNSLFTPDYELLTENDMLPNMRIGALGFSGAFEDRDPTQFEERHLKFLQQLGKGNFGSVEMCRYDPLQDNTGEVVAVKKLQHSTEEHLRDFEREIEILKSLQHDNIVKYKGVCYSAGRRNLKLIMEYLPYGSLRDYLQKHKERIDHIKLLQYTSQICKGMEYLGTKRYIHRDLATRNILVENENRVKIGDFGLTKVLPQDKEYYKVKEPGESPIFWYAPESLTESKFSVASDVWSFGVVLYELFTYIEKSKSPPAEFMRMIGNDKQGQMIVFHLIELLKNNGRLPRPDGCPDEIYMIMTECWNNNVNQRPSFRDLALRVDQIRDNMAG

[9] = target: T1, Non-receptor tyrosine-protein kinase TYK2; assay: Inhibition of human recombinant TYK2 preincubated for 15 mins followed by substrate addition measured after 60 mins by HTRF assay
JAK2/TYK2 [10] = target: T5, JAK2/TYK2 (Homo sapiens, UniProt O60674+P29597); assay: Inhibition of JAK2/TYK2 signal transduction pathway in human NK92 cells assessed as […] induced IFNgamma expression incubated for 24 hrs by ELISA assay; format: cell-based
T5 sequence (O60674 whole entry): as above
T5 sequence (P29597 whole entry): as the sequence (P29597 whole entry, the tested form may be a part) above

[11] = target: T1, Non-receptor tyrosine-protein kinase TYK2; assay: Inhibition of TYK2 JH2 in human TF-1 cells assessed as reduction of IFNalpha induced STAT1 phosphorylation; format: cell-based
[12] = target: T1, Non-receptor tyrosine-protein kinase TYK2; assay: Inhibition of TYK2 JH2 (unknown origin) by scintillation proximity assay
[13] = target: T1, Non-receptor tyrosine-protein kinase TYK2; assay: Binding affinity to TYK2 JH2 (unknown origin)
[14] = target: T1, Non-receptor tyrosine-protein kinase TYK2; assay: Inhibition of TYK2 signal transduction pathway in human PBMC cells assessed as IL-2 induced p-STAT5 level; format: cell-based
[15] = target: T1, Non-receptor tyrosine-protein kinase TYK2; assay: Inhibition of TYK2 signal transduction pathway in human PBMC cells assessed as reduction in GM-CSF induced p-STAT5 level; format: cell-based
[16] = target: T3, Tyrosine-protein kinase JAK1; assay: Binding affinity to JAK1 JH2 (unknown origin)
[17] = target: T1, Non-receptor tyrosine-protein kinase TYK2; assay: Inhibition of TYK2 signal transduction pathway in human PBMC cells assessed as IFNalpha induced p-STAT5 level; format: cell-based
[18] = target: T4, Tyrosine-protein kinase JAK2; assay: Binding affinity to JAK2 JH1 (unknown origin)
[19] = target: T1, Non-receptor tyrosine-protein kinase TYK2; assay: Inhibition of TYK2 signal transduction pathway in human TF-1 cells assessed as reduction in GM-CSF induced p-STAT5 level; format: cell-based
[20] = Cmax in mouse at 10 mg/kg, po measured upto 24 hrs by LC-MS/MS analysis; format: ADME, organism-based; set-up: time < 24 hrs, dose 10 mg/kg, route po; settings: in vivo
[21] = Half life in mouse at 10 mg/kg, po measured upto 24 hrs by LC-MS/MS analysis; format: ADME, organism-based; settings: in vivo
[22] = AUClast in mouse at 10 mg/kg, po measured upto 24 hrs by LC-MS/MS analysis; format: ADME, organism-based; set-up: dose 10 mg/kg, time < 24 hrs, route po; settings: in vivo
JAK2/TYK2 [23] = target: T5, JAK2/TYK2; assay: Inhibition of JAK2/TYK2 signal transduction pathway in human NK92 cells assessed as IL-12 induced STAT4 phosphorylation; format: cell-based
[24] = target: T1, Non-receptor tyrosine-protein kinase TYK2; assay: Inhibition of TYK2 in HEK-Blue IL-23 cells assessed as reduction in SEAP reporter gene expression by Quanti-blue assay; format: cell-based

**Q.** Which IC50 [1] does the source give for `[2H]C([2H])([2H])NC(=O)c1nnc(NC(=O)C2CC2)cc1Nc1cccc(-c2noc(CN3CCN(S(C)(=O)=O)CC3)n2)c1OC` here?
**A.** 30 nM

**Q.** For `[2H]C([2H])([2H])NC(=O)c1cnc(Nc2cc(C3CC3)ncn2)cc1Nc1ncccc1S(C)(=O)=O`, which IC50 [1] is on record?
**A.** 9 nM

**Q.** What does the source list for `CNC(=O)c1nnc(NC(=O)N2CCC2)cc1Nc1cccc(-c2ncn(C)n2)c1OC`?
**A.** Kd [2]: 0.028 nM; IC50 [3]: 54 nM

**Q.** With `[2H]C([2H])([2H])NC(=O)c1nnc(NC(=O)C2CC2)cc1Nc1cccc2c1N(C)Cc1cccnc1-2` as the molecule, how does the IC50 [4] read?
**A.** < 30 nM

**Q.** What about the IC50 [5] of the same molecule?
**A.** < 30 nM

**Q.** Which IC50 [6] does the source give for `NC(=O)c1nnc(-c2c(F)cccc2Cl)cc1Nc1ccc(N2CCOCC2)cc1` here?
**A.** 11 nM

**Q.** And the IC50 [7]?
**A.** 37 nM

**Q.** And the IC50 [8]?
**A.** 9 nM

**Q.** And the IC50 [9]?
**A.** 0.2 nM

**Q.** What about the IC50 (JAK2/TYK2 [10]) of the same molecule?
**A.** 0.4 nM

**Q.** With `CNc1cc(Nc2cccc3c2OCCC3)nc2c(C(=O)N[C@@H]3CCN(C)C3=O)cnn12` as the molecule, how does the IC50 [11] read?
**A.** 7 nM

**Q.** What about the IC50 [12] of the same molecule?
**A.** < 254 nM

**Q.** Which Kd [13] does the source give for `[2H]C([2H])([2H])CC(=O)c1cnc(Nc2cccc(C#N)n2)cc1Nc1nccc(-c2ncn(C([2H])([2H])[2H])n2)c1OC` here?
**A.** ≤ 10 nM

**Q.** And the IC50 [14]?
**A.** ≤ 100 nM

**Q.** What about the IC50 [15] of the same molecule?
**A.** ≤ 1000 nM

**Q.** What about the Kd [16] of the same molecule?
**A.** ≤ 100 nM

**Q.** What about the IC50 [17] of the same molecule?
**A.** < 100 nM

**Q.** And the Kd [18]?
**A.** > 10000 nM

**Q.** What does the source list for `NC(=O)c1nnc(-c2c(F)cccc2F)cc1Nc1ccc(N2CCOCC2=O)cn1`?
**A.** IC50 [6]: 7 nM; IC50 [7]: 81 nM; IC50 [8]: 5 nM; IC50 [9]: 0.08 nM; IC50 (JAK2/TYK2 [10]): 0.3 nM

**Q.** For `CNc1cc(Nc2cccn(-c3ccccn3)c2=O)nc2c(C(=O)N[C@@H]3CCN(C)C3=O)cnn12`, which IC50 [11] is on record?
**A.** 112 nM

**Q.** What about the IC50 [12] of the same molecule?
**A.** < 254 nM

**Q.** With `COc1cc(Nc2cc(NC(C)=O)ncc2-c2ccc(F)cn2)nc(S(C)(=O)=O)c1` as the molecule, how does the IC50 [19] read?
**A.** > 10000 nM

**Q.** What about the Cmax [20] of the same molecule?
**A.** 911 ng/mL

**Q.** And the half-life [21]?
**A.** 1.48 h

**Q.** And the AUC(0-t) at 24 h [22]?
**A.** 2100 ng·h/mL

**Q.** And the IC50 (JAK2/TYK2 [23])?
**A.** 1.82 nM

**Q.** For `[2H]C([2H])([2H])n1nnc2c3cc(cc21)CO[C@@H]1CCC[C@H]1NC(=O)c1cnc2c(NC)cc(nn12)N3`, which Kd [13] is on record?
**A.** 0.002 nM

**Q.** What about the IC50 [17] of the same molecule?
**A.** 1.7 nM

**Q.** Which IC50 [1] does the source give for `[2H]C([2H])([2H])NC(=O)c1nnc(NC(=O)C2CC2)cc1Nc1cccc(-c2nc(CN3CCN(S(C)(=O)=O)CC3)no2)c1OC` here?
**A.** 30 nM

**Q.** With `CCOc1cccc(Nc2cc(NC)n3ncc(C(=O)N[C@@H]4CCN(C)C4=O)c3n2)n1` as the molecule, how does the IC50 [11] read?
**A.** 38 nM

**Q.** And the IC50 [12]?
**A.** < 254 nM

**Q.** Which IC50 [1] does the source give for `[2H]C([2H])([2H])NC(=O)c1nnc(NC(=O)[C@H]2CC23CC3)cc1Nc1ncccc1S(C)(=O)=O` here?
**A.** 47 nM

**Q.** For `[2H]C([2H])([2H])NC(=O)c1nnc(NC(=O)[C@H]2CC23CC3)cc1Nc1ncc(OCCOC)cc1S(C)(=O)=O`, which IC50 [24] is on record?
**A.** < 1 nM

**Q.** With `[2H]C([2H])([2H])NC(=O)c1nnc(NC(=O)C2CC2)cc1Nc1cccc(-c2noc(CN3CCN(S(C)(=N)=O)CC3)n2)c1OC` (configuration not stated) as the molecule, how does the Kd [2] read?
**A.** 0.008 nM

**Q.** Which IC50 [1] does the source give for `[2H]C([2H])([2H])NC(=O)c1nnc(Nc2ccc(C(C)(C)O)cn2)cc1Nc1nc(C)ccc1S(C)(=O)=O` here?
**A.** 6 nM

**Q.** With `O=C(Nc1cc2c(cn1)c(=O)[nH]n2-c1ccccc1)C1CC1` as the molecule, how does the IC50 [4] read?
**A.** < 10000 nM

**Q.** What about the IC50 [5] of the same molecule?
**A.** < 10000 nM
